The values that follow come from US8629283B2, “Compounds that modulate negative-sense, single-stranded RNA virus replication and uses thereof” (Icahn School of Medicine at Mount Sinai, priority 2008, dated 2014).

Marks after values point to notes of the source that are not given here.

For series [1], the system named is influenza A virus (FluA).
Series [2] has as its system A549 cells. The settings on record: for CC10 (A549), concentration of 10% cytotoxicity: human.
The nature of series [3]: in vitro. The settings on record: human.
In series [4] the test system is influenza A/WSN/33 virus.
In series [5] the test system is influenza A virus (FluA). Kind of series: in vitro. The settings on record: human.
Series [6] concerns influenza A virus (FluA). Kind of series: microbe, parasite or virus in culture. The settings on record: A549, read-out: IC50 (A549).
For series [7], the system named is influenza A/WSN/33 virus. Format: cell-based.
In series [8] the test system is influenza B/Yamagata/88 virus. Format: cell-based.
In series [9] the test system is Newcastle disease virus (NDV/B1). In kind it is cell-based.
Series [10] deals with vesicular stomatitis virus (VSV). In kind it is cell-based.

As for `COc1ccc(-c2nnc(SCC(=O)N3CCCC3)o2)cc1` [A3-8], in [1], the “Inhibition of FluA (Table 5)” value is on record as “none**”. In [2], the “CC10 (A549), concentration of 10% cytotoxicity” value (“CC10 … of 10% cytotoxicity” below) was determined as 11.8 µM. This molecule also registered a CC50 in series [3] of 250 µM.

In the case of `N/C(=N\C(=O)c1nc(Cl)c(N)nc1N)NCc1ccc(Cl)c(Cl)c1` [3′,4′-dichlorobenzamil], in [4], the “efficiency of growth enhancement relative to 2′,4′-dichlorobenzamil” value was determined as 10 times less efficient and the “influenza virus growth versus untreated control” value is listed as “boost influenza virus replication”.

With `Cc1[nH]c2ccc(-c3nnc(SCC(=O)N4CCOCC4)o3)cc2c1C` [A3-5, 2-(5-(2,3-dimethyl-1H-indol-5-yl)-1,3,4-oxadiazol-2-ylthio)-1-morpholinoethanone], the “Inhibition of FluA (Table 5)” value in series [1] is on record as around 97%**. Also, the “CC10 … of 10% cytotoxicity” value in series [2] worked out at 10.2 µM. Besides, in [5], the selectivity ratio worked out at 514. Further, in series [3], the CC50 was found to be 257 µM. In addition, the IC50 in [6] came out at 0.5 µM.

For `C[C@H]1O[C@@H](O[C@H]2[C@@H](O)C[C@H](O[C@H]3[C@@H](O)C[C@H](O[C@H]4CC[C@@]5(C)[C@H](CC[C@@H]6[C@@H]5C[C@@H](O)[C@]5(C)[C@@H](C7=CC(=O)OC7)CC[C@]65O)C4)O[C@@H]3C)O[C@@H]2C)C[C@H](O)[C@@H]1O` [digoxin], the “HTS result (luciferase signal of influenza mini-genome reporter)” value (from here on “HTS result”) in [7] is listed as “potential influenza virus inhibitors”.

Regarding `Nc1nc(-c2ccc(Cl)cc2)cs1` [A35-3], the “Inhibition of FluA (Table 5)” value in series [1] is listed as “none**”. Moreover, the “CC10 … of 10% cytotoxicity” value in series [2] was found to be 11.4 µM. The CC50 in series [3] was found to be 165 µM.

Take `Cc1[nH]c2ccc(-c3nnc(SCC(=O)N(C(C)C)C(C)C)o3)cc2c1C` [A3-4, 2-(5-(2,3-dimethyl-1H-indol-5-yl)-1,3,4-oxadiazol-2-ylthio)-N,N-diisopropylacetamide]: the “Inhibition of FluA (Table 5)” value in [1] is around 87.5%**. Further, the “CC10 … of 10% cytotoxicity” value in series [2] was 10.7 µM. For the same molecule, the selectivity ratio in series [5] worked out at 11. For the same molecule, in [3], the CC50 is 17.7 µM. Besides, the IC50 in series [6] was determined as 1.65 µM.

For `CCN(CC)C(=O)CSc1nnc(-c2ccc3[nH]c(C)c(C)c3c2)o1` [A3-2, 2-(5-(2,3-dimethyl-1H-indol-5-yl)-1,3,4-oxadiazol-2-ylthio)-N,N-diethylacetamide], in [1], the “Inhibition of FluA (Table 5)” value is given as around 97%**. For the same molecule, the “CC10 … of 10% cytotoxicity” value in series [2] was 29 µM. The selectivity ratio in series [5] is above 165. In series [3], this molecule came in with a CC50 of 198 µM. Also, in series [6], the IC50 was 1.2 µM.

`N#Cc1cc2c(OCC(O)CN3CCN(C(c4ccccc4)c4ccccc4)CC3)cccc2[nH]1` (centres unmarked) [SDZ-201106]: in [4], the “SI [CC50/IC50] selective index” value was 7 and the “reduction in viral titer compared to untreated control” value was determined as 85%. Also, the IC50 in series [4] (read-out: IC50 (compound concentration of 50% inhibition of viral replication)) was 4.1 µM. The “concentrations found non-toxic / not decreasing cell viability, up to” value in series [2] (A549 cells, 24 h, MTS assay) was “up to 12.5 μM”. In [7], the “HTS result” value is “potential influenza virus inhibitors”. In series [8], the “reduction in viral growth/titer compared to untreated control” value stood at 72%.

Regarding `O=C(CSc1nnc(-c2cc3ccccc3[nH]2)o1)N1CCCC1` [A3-7], the “Inhibition of FluA (Table 5)” value in series [1] is around 29%**. Moreover, the “CC10 … of 10% cytotoxicity” value in [2] was 15.2 µM. Moreover, in [3], the CC50 is 134 µM.

In the case of `O=C(CSc1nnc(-c2cc3ccccc3o2)o1)N1CCCC1` [A3-9], the “Inhibition of FluA (Table 5)” value in series [1] is listed as around 29%**. The “CC10 … of 10% cytotoxicity” value in series [2] worked out at 10.9 µM. The molecule also gave a CC50 in series [3] of 197 µM.

Consider `Cc1[nH]c2ccc(-c3nnc(SCC(=O)N4CCc5ccccc54)o3)cc2c1C` [A3-3, 2-(5-(2,3-dimethyl-1H-indol-5-yl)-1,3,4-oxadiazol-2-ylthio)-1-(indolin-1-yl)ethanone], for which the “Inhibition of FluA (Table 5)” value in series [1] is reported as around 50%**. In series [2], the “CC10 … of 10% cytotoxicity” value stood at 8.5 µM. In addition, in series [5], the selectivity ratio was determined as 8. The molecule also displayed a CC50 in [3] of 65 µM. In addition, in series [6], the IC50 worked out at 8.5 µM.

Consider `CN(c1ccc(O)cc1)c1nc(-c2ccc(Cl)cc2)cs1` [A35-4, 4-[[4-(4-chlorophenyl)-1,3-thiazol-2-yl](methyl)amino]phenol], for which the “Inhibition of FluA (Table 5)” value in [1] was around 50%**. Further, in series [2], the “CC10 … of 10% cytotoxicity” value turned out to be 6 µM. For the same molecule, the selectivity ratio in [5] turned out to be 5. The molecule further yielded a CC50 in [3] of 30 µM. The IC50 in series [6] was 6 µM.

On to `O=C(CSc1nnc(-c2ccncc2)o1)N1CCCC1` [A3-12], for which the “Inhibition of FluA (Table 5)” value in series [1] was around 29%**. Besides, the “CC10 … of 10% cytotoxicity” value in series [2] came to 11.5 µM. The CC50 in series [3] is 186 µM.

For `CCN(CC)S(=O)(=O)c1ccc(-c2nnc(SCC(=O)N3CCCC3)o2)cc1` [A3-1], the “Inhibition of FluA (Table 5)” value in [1] is recorded as around 29%**. Also, the “CC10 … of 10% cytotoxicity” value in series [2] was determined as 17.3 µM. Further, the CC50 in series [3] turned out to be 316 µM.

On to `O=C(CSc1nnc(-c2cccnc2)o1)N1CCCC1` [A3-11], for which the “Inhibition of FluA (Table 5)” value in [1] is recorded as “none**”. The “CC10 … of 10% cytotoxicity” value in [2] was 32.6 µM. In series [3], this molecule yielded a CC50 of 249 µM.

Turning to `C[C@]12CC[C@H]3[C@@H](CC[C@]4(O)C[C@@H](O)CC[C@]34C=O)[C@@]1(O)CC[C@@H]2C1=CC(=O)OC1` [strophanthidin], the “HTS result” value in series [7] is listed as “potential influenza virus inhibitors”.

Consider `CN(c1nc(-c2ccccc2)cs1)C1CCS(=O)(=O)C1` (centres unmarked) [A35-2], for which the “Inhibition of FluA (Table 5)” value in series [1] is listed as “none**”. Moreover, the “CC10 … of 10% cytotoxicity” value in series [2] was determined as 12.2 µM. The same molecule returned a CC50 in series [3] of 148 µM.

`Cc1[nH]c2ccc(-c3nnc(SCC(=O)N4CCCCCC4)o3)cc2c1C` [A3-6, 1-(azepan-1-yl)-2-(5-(2,3-dimethyl-1H-indol-5-yl)-1,3,4-oxadiazol-2-ylthio)ethanone]: in series [1], the “Inhibition of FluA (Table 5)” value was around 87.5%**. Moreover, in series [2], the “CC10 … of 10% cytotoxicity” value came to 18.2 µM. In addition, in series [5], the selectivity ratio was determined as 180. For the same molecule, the CC50 in [3] was 179 µM. The IC50 in series [6] turned out to be 0.98 µM.

Take `CN(Cc1ccccc1)c1nc(-c2ccc([N+](=O)[O-])cc2)cs1` [A35-1, N-methyl-4-(4-nitrophenyl)-N-(phenylmethyl)-2-thiazolamine]: the “Inhibition of FluA (Table 5)” value in series [1] was around 75%**. Also, in [2], the “CC10 … of 10% cytotoxicity” value stood at 10.8 µM. In addition, the selectivity ratio in series [5] stood at 62. Moreover, in [3], the CC50 was 201 µM. In series [6], the IC50 was 3.24 µM.

Turning to lanatoside C, in series [4], the “decrease of viral titer compared to untreated control” value is listed as 95.9%. In addition, the “inhibition of NDV replication” value in series [9] is listed as “significantly inhibited”. Besides, in series [2], the CC50 was found to be 0.21 µM and the “concentration that maintained at least an 80% cell viability (CC20)” value was found to be 0.078 µM. Further, the “inhibition of VSV replication” value in series [10] is recorded as “significantly inhibited”. In addition, in [7], the “HTS result” value is “potential influenza virus inhibitors”.

Turning to `CCCCCCCCCCCCCC(=O)O[C@@H]1[C@@H](C)[C@@]2(O)[C@@H](C=C(CO)C[C@]3(O)C(=O)C(C)=C[C@@H]23)[C@@H]2C(C)(C)[C@]12OC(C)=O` [PMA, phorbol 12-myristate 13-acetate], the “increase of viral titer compared to untreated cells” value in series [4] was determined as 12 fold. Besides, the “HTS result” value in [7] was “not originally recognized in the screen as an enhancer”.
